# Assay results: the SangsterLogP compilation
row,logP,SMILES
1,4.15,CCCCN(CCCC)CC(=O)NC1COc2ccccc21 (stereo not drawn)
2,2.41,COc1ccc2c(c1)OCC2NC(=O)CN1CCCCC1 (stereo not drawn)
3,2.47,O=C(CN1CCCC1)NC1COc2ccc(Cl)cc21 (stereo not drawn)
4,2.2,CCN(CC)CC(=O)NC1COc2ccccc21 (stereo not drawn)
5,2.78,Cc1ccc2c(c1)C(NC(=O)CN1CCCCC1)CO2 (stereo not drawn)
6,1.76,O=C(CN1CCCC1)NC1COc2ccccc21 (stereo not drawn)
7,2.69,CCN(CC)CC(=O)NC1COc2ccc(C)cc21 (stereo not drawn)
8,4.43,CCCCN(CCCC)CC(=O)NC1COc2ccc(C)cc21 (stereo not drawn)
9,4.24,CCCCN(CCCC)CC(=O)NC1COc2cc(OC)ccc21 (stereo not drawn)
10,4.44,CCCCN(CCCC)CC(=O)NC1COc2ccc(Cl)cc21 (stereo not drawn)
11,0.92,COc1ccc2c(c1)OCC2NC(=O)CN1CCOCC1 (stereo not drawn)
12,2.3,O=C(CN1CCCCC1)NC1COc2ccccc21 (stereo not drawn)
13,0.81,O=C(CN1CCOCC1)NC1COc2ccccc21 (stereo not drawn)
14,3.01,O=C(CN1CCCCC1)NC1COc2ccc(Cl)cc21 (stereo not drawn)
15,1.55,O=C(CN1CCOCC1)NC1COc2ccc(Cl)cc21 (stereo not drawn)
16,1.38,Cc1ccc2c(c1)C(NC(=O)CN1CCOCC1)CO2 (stereo not drawn)
17,2.24,Cc1ccc2c(c1)C(NC(=O)CN1CCCC1)CO2 (stereo not drawn)
18,2.88,CCN(CC)CC(=O)NC1COc2ccc(Cl)cc21 (stereo not drawn)
